The source of these data is ChEMBL document CHEMBL1938391, “Design and synthesis of novel photoaffinity probes for study of the target proteins of oleanolic acid” (Bioorg Med Chem Lett, 2012).

This assay has as its target T1, Glycogen phosphorylase, muscle form (Oryctolagus cuniculus, UniProt P00489).
T1 sequence (P00489 whole entry): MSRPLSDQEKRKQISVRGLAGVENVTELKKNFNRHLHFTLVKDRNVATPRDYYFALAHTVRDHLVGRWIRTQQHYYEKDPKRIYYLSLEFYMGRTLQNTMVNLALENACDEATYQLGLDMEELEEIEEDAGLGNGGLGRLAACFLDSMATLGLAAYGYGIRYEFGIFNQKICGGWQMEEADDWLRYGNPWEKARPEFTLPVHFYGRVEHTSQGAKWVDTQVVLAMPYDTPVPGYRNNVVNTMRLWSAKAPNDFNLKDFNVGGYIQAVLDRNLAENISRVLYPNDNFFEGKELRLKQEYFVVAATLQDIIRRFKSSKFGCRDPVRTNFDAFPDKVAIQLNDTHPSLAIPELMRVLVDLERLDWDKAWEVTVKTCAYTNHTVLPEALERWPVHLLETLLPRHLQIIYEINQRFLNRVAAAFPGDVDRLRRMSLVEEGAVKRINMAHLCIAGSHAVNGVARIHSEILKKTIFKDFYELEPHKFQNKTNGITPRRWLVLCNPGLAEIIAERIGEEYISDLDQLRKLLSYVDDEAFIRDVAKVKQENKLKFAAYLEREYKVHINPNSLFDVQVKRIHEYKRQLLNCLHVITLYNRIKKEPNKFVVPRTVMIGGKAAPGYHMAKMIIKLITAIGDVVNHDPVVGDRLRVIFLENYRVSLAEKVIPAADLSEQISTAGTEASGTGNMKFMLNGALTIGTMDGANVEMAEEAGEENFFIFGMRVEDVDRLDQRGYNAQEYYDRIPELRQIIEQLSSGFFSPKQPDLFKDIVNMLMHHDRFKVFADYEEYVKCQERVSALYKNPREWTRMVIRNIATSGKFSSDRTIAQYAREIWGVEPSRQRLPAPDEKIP
In words: Inhibition of rabbit muscle glycogen phosphorylase a assessed as release of phosphate from glucose-1-phosphate after 25 mins using malachite green staining.

`CC1(C)CC[C@]2(C(=O)O)CC[C@]3(C)C(=CC[C@@H]4[C@@]5(C)CC[C@H](OC(=O)COCCOCCNC(=O)c6ccc(C(=O)c7ccc(NC(=O)CCCC[C@@H]8SC[C@@H]9NC(=O)N[C@@H]98)cc7)cc6)C(C)(C)[C@@H]5CC[C@]43C)[C@@H]2C1`: the IC50 was 41.1 µM.

In the case of `CC1(C)CC[C@]2(C(=O)O)CC[C@]3(C)C(=CC[C@@H]4[C@@]5(C)CC[C@H](OC(=O)COCCOCCNC(=O)c6ccc(C(=O)c7ccc(NC(=O)CN=[N+]=[N-])cc7)cc6)C(C)(C)[C@@H]5CC[C@]43C)[C@@H]2C1`, the IC50 turned out to be 115 µM.
